Laboratory results reported in US20220296522A1, “BRYOID COMPOSITIONS, METHODS OF MAKING AND USE THEREOF” (Aphios Corporation, priority 2021, published 2022).
“Also recorded” adds a separate entry of the source.

Experiments:
[1] = Solubility of Bryostatin-1 in solvents and oils by normal phase HPLC; assay type: physicochemical; conditions: for Concentration: theoretical 2.5 mg/100 mL
Procedure: Based on the hydrophobicity of Bryostatin-1, we developed an oil-based formulation of Bryostatin-1. […] Isopropyl alcohol, Extra Virgin olive oil, sesame oil, and vegetable oil were all used as solvents. Thirty microliters of the stock solution were placed in each of 4 clean, dry HPLC vials. The ethanol was allowed to evaporate, leaving 25 micrograms in the vial. Then, 1.0 mL of the solvent was placed in the vial and vortexed to ensure proper mixing. These samples were then injected on a normal phase HPLC system, with a gradient of 10%-70% isopropyl alcohol in hexane as the mobile phase (specifically developed for this experiment). The concentration of each vial theoretically should be 2.5 mg/100 mL.
The reason for the higher concentrations than the standard (isopropyl alcohol) is due to the baseline. While attempting a baseline subtraction for each oil, there was negative absorbance so the blank IPA sample was subtracted from each sample's baseline. While this incorporates a little more area for integration, the amount of Bryostatin in the oil was quantifiable.

[2] = tested on: B6C3-Tg (APPswe, PSEN1 dE9) 85Dbo/J mice; assay: Morris water maze in APP/PS1 Alzheimer's disease mice; assay type: in vivo, mouse
Procedure: Mouse strain B6C3-Tg carrying mutant Swedish Amyloid precursor protein (sweAPP) and PS I (presenilin-1) genes associated with early onset Alzheimer's disease were subjected to water maze tests at 5-6 months of age.
In vivo studies were conducted using the Morris water maze to evaluate cognitive impairments and restoration in response to drug treatments. These studies used the mouse strain B6C3-Tg (APPswe, PSEN1 dE9) 85Dbo/J mice (MMRRC, Jackson Labs).

[3] = tested on: TS65DN transgenic mouse model of Down syndrome; assay: Morris water maze in TS65DN mouse model of Down syndrome, intranasal; assay type: in vivo; conditions: PET formulation
From the text: In this model, wild type mice improved over the 4 trials shown as a reduction in latency within the trial.
TS65DN mouse model of Down syndrome were purchased from MMRRC/Jackson Labs at 20-24 weeks of age and maintained in the LSUHSC-S vivarium. Segmentally trisomic Ts65Dn mice provide a postnatal model for Down syndrome.

[4] = Biodistribution of radio-labeled Bryostatin-1 by different administration routes; assay type: in vivo, mouse
From the text: It is worth mentioning that oil formulations were used for […] and intraperitoneal studies. Aqueous formulations were used for intravenous administration and PET formulation for intranasal administration.

SK-HEP1 liver cells = assay: Metabolism by SK-HEP1 liver cells; assay type: in vitro ADME; conditions: within 24 h
alpha-secretase = alpha-secretase activity in SHSY-5Y neuroblastoma cells (FIG. 10); assay type: cell-based; conditions: 10−9 M, versus Bryostatin-1
From the text: Purified Bryoids at 10−^9 M are shown to increase alpha-secretase activity in SHSY-5Y neuroblastoma cells in FIG. 10.

[5] = over 72 h following intranasal administration

CCC/C=C/C=C/C(=O)O[C@H]1/C(=C/C(=O)OC)C[C@H]2C[C@H]([C@@H](C)O)OC(=O)C[C@H](O)C[C@@H]3C[C@H](OC(C)=O)C(C)(C)[C@](O)(C[C@@H]4C/C(=C/C(=O)OC)C[C@H](/C=C/C(C)(C)[C@]1(O)O2)O4)O3 [Bryostatin-1]
Concentration ([1]; Extra Virgin Olive Oil): 2.9945 mg/100 mL
Concentration ([1]; Extra Virgin olive with mixed natural tocopherol antioxidants, lecithin and medium chain triglyceride emulsifiers): 2.4431 mg/100 mL
Concentration ([1]; Isopropyl Alcohol (standard)): 2.6035 mg/100 mL
Concentration ([1]; Vegetable Oil): 2.5475 mg/100 mL
solubility in oils ([1]; variety of oils): soluble in a variety of different types of oil; also recorded: soluble in a variety of oils, with the best results in Extra Virgin Olive Oil, Vegetable Oil, and Extra Virgin Olive Oil with excipients
protection against memory loss in water maze ([2]; 5 micrograms/mouse on alternative days orally in oil formulation, APP/PS1 mice 5-6 months of age, versus control animals): significant protection against Alzheimer's disease mediated memory loss
responses in water maze ([2]; i.p. treated mice): did not find that i.p. treated mice showed as good responses
inter-trial water maze performance (latency) ([3]; 0.01 μg intranasal): did not show this same improvement
inter-trial water maze performance (latency) ([3]; 0.1 μg intranasal, p<0.05 compared to vehicle treated Down's mice): inter-trial interval improvement
inter-trial water maze performance (latency) ([3]; 1 μg intranasal, p<0.001 compared to vehicle treated transgenic Down's mice): significant improvement
tissue distribution of 3H-labeled tracer ([4]; 8 h following intranasal administration, normalized to CPM/g): most abundant in hippocampus, large intestine and urine
tissue distribution of 3H-labeled tracer ([4]; 12 h following intranasal administration): most abundant in hippocampus and urine
tissue distribution of 3H-labeled tracer ([4]; 24 h following intranasal administration): most abundant in hippocampus, urine and feces
tissue distribution of 3H-labeled tracer ([4]; 48 h following intranasal administration): most abundant in hippocampus and fat tissues
accumulation in different tissues ([4]; i.p. dosed group): highest tissue accumulations
accumulation in different tissues ([4]; i.v. dosed group): highest tissue accumulations
accumulation in hippocampus and lung ([4]; intranasal delivery, by 4 h): relative high levels of Bryostatin-1 accumulation
accumulation in different tissues ([4]; oral route (oil formulation)): lowest
Hippocampal content [4, 5]: relatively high hippocampal uptake rates were achieved and maintained; also recorded: slow rate of loss over 72 h
Lung content [4, 5]: a peak at 4 h and rapid excretion by 8 h; also recorded: rapid rate of appearance at 4h followed by rapid loss at 8 h
metabolism by liver cells (SK-HEP1 liver cells): not significantly metabolized

CCC/C=C/C=C/C(=O)O[C@H]1[C@H]2C=C3C[C@H]([C@@H](C)O)OC(=O)C[C@H](O)C[C@@H]4C[C@H](OC(C)=O)C(C)(C)[C@](O)(C[C@@H]5C/C(=C\C(=O)OC)C[C@H](/C=C/C(C)(C)[C@]1(OC(=O)C2)O3)O5)O4 [Bryoid B3, Bryostatin-3]
alpha-secretase activity (alpha-secretase): improve the production of alpha-secretase over Bryostatin-1

bryostatin-3 26-ketone [Bryoid B16]
alpha-secretase activity (alpha-secretase): improve the production of alpha-secretase over Bryostatin-1
